Key:
Assay in all cases: biochemical
Design in all cases: DiscoverX kinase panel, active-site competition binding (KINOMEscan type), percent of control at one concentration
Conditions in all cases: competition binding, percent of control
FLT3(D835H) = FLT3(D835H) (Homo sapiens, UniProt P36888, D835H)
SRC = SRC (Homo sapiens, UniProt P12931)
NEK1 = NEK1 (Homo sapiens, UniProt Q96PY6)
DCAMKL1 = molecular target: T1, DCAMKL1 (Homo sapiens, UniProt O15075)
T1 construct: gene DCLK1

DAPK1 = DAPK1 (Homo sapiens, UniProt P53355)
MARK4 = MARK4 (Homo sapiens, UniProt Q96L34)
TRKA = molecular target: T2, TRKA (Homo sapiens, UniProt P04629)
T2 construct: gene NTRK1

YSK1 = molecular target: T3, YSK1 (Homo sapiens, UniProt O00506)
T3 construct: gene STK25

ERBB2 = ERBB2 (Homo sapiens, UniProt P04626)
MAPKAPK5 = MAPKAPK5 (Homo sapiens, UniProt Q8IW41)
FGR = FGR (Homo sapiens, UniProt P09769)
Sequence of FGR (P09769 whole entry): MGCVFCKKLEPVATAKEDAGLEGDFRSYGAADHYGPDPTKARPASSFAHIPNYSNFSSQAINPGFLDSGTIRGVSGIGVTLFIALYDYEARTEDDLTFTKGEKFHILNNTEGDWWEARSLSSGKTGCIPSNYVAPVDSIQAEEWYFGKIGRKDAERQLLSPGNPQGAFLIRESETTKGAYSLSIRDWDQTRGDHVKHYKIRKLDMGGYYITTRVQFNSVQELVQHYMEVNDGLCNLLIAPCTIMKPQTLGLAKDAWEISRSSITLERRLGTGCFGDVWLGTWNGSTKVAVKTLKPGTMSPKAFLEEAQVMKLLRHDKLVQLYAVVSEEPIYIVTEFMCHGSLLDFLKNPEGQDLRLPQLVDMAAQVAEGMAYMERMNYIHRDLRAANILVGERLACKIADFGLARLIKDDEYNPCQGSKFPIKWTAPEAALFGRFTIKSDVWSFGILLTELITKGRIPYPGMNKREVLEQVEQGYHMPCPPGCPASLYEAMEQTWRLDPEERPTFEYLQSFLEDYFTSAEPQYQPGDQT

FGFR1 = FGFR1 (Homo sapiens, UniProt P11362)
GRK2 = GRK2 (Homo sapiens, UniProt P25098)
PAK1 = PAK1 (Homo sapiens, UniProt Q13153)
Sequence of PAK1 (Q13153 whole entry): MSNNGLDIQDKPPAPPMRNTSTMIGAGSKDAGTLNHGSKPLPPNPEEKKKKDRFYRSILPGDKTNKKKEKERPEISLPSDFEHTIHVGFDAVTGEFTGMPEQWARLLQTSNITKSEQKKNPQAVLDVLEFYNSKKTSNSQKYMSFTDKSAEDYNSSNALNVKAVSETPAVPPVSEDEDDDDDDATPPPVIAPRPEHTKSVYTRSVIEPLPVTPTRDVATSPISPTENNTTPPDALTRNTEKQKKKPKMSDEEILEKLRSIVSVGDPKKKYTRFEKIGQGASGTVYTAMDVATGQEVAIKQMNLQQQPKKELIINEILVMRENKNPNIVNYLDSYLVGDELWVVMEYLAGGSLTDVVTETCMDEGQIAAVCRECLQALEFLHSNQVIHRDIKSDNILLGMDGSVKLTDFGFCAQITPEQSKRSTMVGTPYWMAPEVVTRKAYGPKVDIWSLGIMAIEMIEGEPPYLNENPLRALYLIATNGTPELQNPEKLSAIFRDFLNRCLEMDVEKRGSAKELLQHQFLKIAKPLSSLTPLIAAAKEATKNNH

PIM1 = PIM1 (Homo sapiens, UniProt P11309)
Sequence of PIM1 (P11309 whole entry): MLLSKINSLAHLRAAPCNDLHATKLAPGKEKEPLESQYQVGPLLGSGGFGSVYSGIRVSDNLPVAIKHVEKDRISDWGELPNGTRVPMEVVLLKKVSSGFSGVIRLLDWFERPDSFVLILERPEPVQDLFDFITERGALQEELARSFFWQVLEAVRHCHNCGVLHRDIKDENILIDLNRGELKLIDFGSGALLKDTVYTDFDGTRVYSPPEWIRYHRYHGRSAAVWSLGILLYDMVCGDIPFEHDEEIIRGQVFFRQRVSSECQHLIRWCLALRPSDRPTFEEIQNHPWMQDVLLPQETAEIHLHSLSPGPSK

EPHA6 = EPHA6 (Homo sapiens, UniProt Q9UF33)
CAMK2B = CAMK2B (Homo sapiens, UniProt Q13554)
Sequence of CAMK2B (Q13554 whole entry): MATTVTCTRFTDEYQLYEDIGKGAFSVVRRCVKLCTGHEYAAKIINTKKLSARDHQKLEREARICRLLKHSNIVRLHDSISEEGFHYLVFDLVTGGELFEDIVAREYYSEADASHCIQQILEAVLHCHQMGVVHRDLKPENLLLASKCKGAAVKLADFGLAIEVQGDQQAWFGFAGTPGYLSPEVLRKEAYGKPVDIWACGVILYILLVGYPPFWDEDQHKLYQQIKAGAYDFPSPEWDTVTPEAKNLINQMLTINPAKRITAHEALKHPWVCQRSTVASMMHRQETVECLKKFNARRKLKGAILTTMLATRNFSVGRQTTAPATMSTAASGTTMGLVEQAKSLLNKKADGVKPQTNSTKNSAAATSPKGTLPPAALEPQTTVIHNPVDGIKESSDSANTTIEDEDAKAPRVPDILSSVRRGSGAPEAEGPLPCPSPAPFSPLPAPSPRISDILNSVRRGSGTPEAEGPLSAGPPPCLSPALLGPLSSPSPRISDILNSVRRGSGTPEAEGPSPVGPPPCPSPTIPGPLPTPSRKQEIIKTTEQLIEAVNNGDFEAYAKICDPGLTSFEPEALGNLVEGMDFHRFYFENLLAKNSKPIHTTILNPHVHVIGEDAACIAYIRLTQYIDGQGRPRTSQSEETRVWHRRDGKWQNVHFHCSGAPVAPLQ

MLCK = molecular target: T4, MLCK (Homo sapiens, UniProt Q32MK0)
T4 construct: gene MYLK3

EPHA7 = EPHA7 (Homo sapiens, UniProt Q15375)
Sequence of EPHA7 (Q15375 whole entry): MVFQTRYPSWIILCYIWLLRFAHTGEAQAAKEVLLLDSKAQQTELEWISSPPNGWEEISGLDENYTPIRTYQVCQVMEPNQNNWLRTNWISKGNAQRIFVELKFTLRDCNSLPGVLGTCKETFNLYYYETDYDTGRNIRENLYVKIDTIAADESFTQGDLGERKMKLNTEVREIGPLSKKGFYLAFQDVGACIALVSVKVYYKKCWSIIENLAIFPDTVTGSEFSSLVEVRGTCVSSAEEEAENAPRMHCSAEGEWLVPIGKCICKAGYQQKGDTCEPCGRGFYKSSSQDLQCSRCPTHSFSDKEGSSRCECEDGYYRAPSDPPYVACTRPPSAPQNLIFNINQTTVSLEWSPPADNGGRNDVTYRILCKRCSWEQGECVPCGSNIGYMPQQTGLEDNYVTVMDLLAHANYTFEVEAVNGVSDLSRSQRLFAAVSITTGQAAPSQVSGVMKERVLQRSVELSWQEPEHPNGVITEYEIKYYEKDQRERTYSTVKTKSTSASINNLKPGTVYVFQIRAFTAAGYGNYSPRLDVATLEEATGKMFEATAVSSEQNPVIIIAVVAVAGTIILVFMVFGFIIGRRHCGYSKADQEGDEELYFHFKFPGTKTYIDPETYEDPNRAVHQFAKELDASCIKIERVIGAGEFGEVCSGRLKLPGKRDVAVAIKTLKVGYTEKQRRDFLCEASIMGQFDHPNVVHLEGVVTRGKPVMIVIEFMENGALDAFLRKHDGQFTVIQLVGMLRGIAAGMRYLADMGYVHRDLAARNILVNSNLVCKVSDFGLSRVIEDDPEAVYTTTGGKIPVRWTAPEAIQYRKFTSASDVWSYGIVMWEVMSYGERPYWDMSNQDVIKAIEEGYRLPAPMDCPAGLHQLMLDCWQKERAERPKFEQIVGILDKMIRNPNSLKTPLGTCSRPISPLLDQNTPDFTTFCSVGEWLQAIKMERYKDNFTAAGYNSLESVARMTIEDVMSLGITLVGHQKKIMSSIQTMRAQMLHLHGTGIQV

PAK3 = PAK3 (Homo sapiens, UniProt O75914)
ERN1 = ERN1 (Homo sapiens, UniProt O75460)
CDC2L5 = molecular target: T5, CDC2L5 (Homo sapiens, UniProt Q14004)
T5 construct: gene CDK13

Sequence of SRC (P12931 whole entry): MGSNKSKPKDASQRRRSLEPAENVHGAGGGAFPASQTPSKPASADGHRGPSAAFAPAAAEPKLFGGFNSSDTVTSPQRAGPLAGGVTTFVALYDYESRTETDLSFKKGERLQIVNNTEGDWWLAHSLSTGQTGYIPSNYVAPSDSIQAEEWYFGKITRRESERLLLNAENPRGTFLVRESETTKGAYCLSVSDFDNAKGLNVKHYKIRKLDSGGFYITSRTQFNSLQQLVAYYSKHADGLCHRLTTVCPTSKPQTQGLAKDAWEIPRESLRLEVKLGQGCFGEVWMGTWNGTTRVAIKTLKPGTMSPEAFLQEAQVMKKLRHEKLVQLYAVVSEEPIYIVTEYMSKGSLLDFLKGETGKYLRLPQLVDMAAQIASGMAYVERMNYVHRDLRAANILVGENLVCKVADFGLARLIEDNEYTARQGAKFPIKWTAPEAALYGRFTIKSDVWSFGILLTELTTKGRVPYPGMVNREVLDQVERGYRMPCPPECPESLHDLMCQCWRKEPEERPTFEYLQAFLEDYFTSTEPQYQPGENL
Sequence of NEK1 (Q96PY6 whole entry): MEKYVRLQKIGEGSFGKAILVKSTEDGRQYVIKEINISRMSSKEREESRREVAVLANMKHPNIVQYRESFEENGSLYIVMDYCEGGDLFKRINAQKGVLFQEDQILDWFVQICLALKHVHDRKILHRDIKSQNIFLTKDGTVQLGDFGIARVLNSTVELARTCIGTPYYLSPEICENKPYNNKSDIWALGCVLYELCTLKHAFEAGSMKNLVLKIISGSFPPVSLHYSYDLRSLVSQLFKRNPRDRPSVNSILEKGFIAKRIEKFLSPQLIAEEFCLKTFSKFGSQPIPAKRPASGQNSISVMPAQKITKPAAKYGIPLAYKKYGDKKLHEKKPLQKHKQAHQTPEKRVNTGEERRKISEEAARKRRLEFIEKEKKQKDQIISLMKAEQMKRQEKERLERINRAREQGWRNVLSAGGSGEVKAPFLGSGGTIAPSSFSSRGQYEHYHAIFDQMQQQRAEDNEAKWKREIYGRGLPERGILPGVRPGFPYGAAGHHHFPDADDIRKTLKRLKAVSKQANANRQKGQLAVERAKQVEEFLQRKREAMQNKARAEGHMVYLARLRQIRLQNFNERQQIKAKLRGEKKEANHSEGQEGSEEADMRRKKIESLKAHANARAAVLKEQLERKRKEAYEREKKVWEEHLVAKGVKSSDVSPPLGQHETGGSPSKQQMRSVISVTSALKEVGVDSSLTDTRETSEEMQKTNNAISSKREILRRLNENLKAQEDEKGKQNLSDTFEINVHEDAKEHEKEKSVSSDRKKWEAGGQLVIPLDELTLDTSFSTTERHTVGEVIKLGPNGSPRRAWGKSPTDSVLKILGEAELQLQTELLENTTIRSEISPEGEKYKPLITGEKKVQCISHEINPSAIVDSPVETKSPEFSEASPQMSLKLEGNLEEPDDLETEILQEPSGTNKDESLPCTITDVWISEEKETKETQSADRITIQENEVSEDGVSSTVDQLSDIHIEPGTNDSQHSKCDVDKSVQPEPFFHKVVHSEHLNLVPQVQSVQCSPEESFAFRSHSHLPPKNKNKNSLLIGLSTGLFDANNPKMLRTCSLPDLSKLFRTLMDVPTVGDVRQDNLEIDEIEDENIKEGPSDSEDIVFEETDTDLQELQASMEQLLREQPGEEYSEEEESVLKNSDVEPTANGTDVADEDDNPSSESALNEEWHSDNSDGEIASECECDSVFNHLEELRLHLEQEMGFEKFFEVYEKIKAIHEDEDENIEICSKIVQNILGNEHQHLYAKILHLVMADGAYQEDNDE

Compound: COc1cc2c(cn1)N(C)C(=O)[C@@H](NC(=O)c1nc3n(n1)[C@H](c1ccccc1)CC3)CC2 [GNE684, (S)-N-((S)-7-methoxy-1-methyl-2-oxo-2,3,4,5-tetrahydro-1H-pyrido[3,4-b]azepin-3-yl)-5-phenyl-6,7-dihydro-5H-pyrrolo[1,2-b][1,2,4]triazole-2-carboxamide]
- remaining binding at 10 µM (FLT3(D835H)): 94%
- remaining binding at 10 µM (SRC): 72%
- remaining binding at 10 µM (NEK1): 100%
- remaining binding at 10 µM (DCAMKL1): 67%
- remaining binding at 10 µM (DAPK1): 88%
- remaining binding at 10 µM (MARK4): 60%
- remaining binding at 10 µM (TRKA): 87%
- remaining binding at 10 µM (YSK1): 90%
- remaining binding at 10 µM (ERBB2): 76%
- remaining binding at 10 µM (MAPKAPK5): 100%
- remaining binding at 10 µM (FGR): 94%
- remaining binding at 10 µM (FGFR1): 92%
- remaining binding at 10 µM (GRK2): 94%
- remaining binding at 10 µM (PAK1): 94%
- remaining binding at 10 µM (PIM1): 100%
- remaining binding at 10 µM (EPHA6): 100%
- remaining binding at 10 µM (CAMK2B): 76%
- remaining binding at 10 µM (MLCK): 66%
- remaining binding at 10 µM (EPHA7): 100%
- remaining binding at 10 µM (PAK3): 99%
- remaining binding at 10 µM (ERN1): 97%
- remaining binding at 10 µM (CDC2L5): 100%

— PMC7206119, “RIP1 inhibition blocks inflammatory diseases but not tumor growth or metastases” (Cell Death and Differentiation, 2019)
